# According to patent US20140088052A1, “CHALCONE DERIVATIVES AS NRF2 ACTIVATORS” (THE JOHNS HOPKINS UNIVERSITY, priority 2011, published 2014):
# Read-outs that look alike come from different tables or passages of the source.
# How the values were obtained:
# Nrf2 = assay: Expression of Nrf2-regulated genes GCLM and NQO1 by qRT-PCR in Beas-2B cells (screen); format: cell-based, human; conditions: 16 h; for fold induction at 10 µM: Homo sapiens
# Experimental: To investigate the potency of the presently disclosed chalcone derivatives to activate Nrf2, the expression of antioxidant genes, GCLM and NADPH-NQO1, two well characterized transcriptional targets of Nrf2, were measured as surrogate markers. By “marker” is meant any protein or polynucleotide having an alteration in expression level or activity that is associated with a disease, disorder, or condition. It has been previously shown that oxidants or small molecule activators of Nrf2 increase GCLM and NQO1 in cells or tissues of wild-type, but not in Nrf2-deficient mice. Osburn, W. O., et al., Genetic or pharmacologic amplification of Nrf2 signaling inhibits acute inflammatory liver injury in mice. Toxicol. Sci. 2008, 104(1), 218-227. […]
# RNA was isolated and gene expression was measured after 16 h.
# Total RNA was extracted from cells/tissue using Qiagen RNeasy kit (Qiagen Corporation, Valencia, Calif.) and reverse transcription was performed by using random hexamers and MultiScribe reverse transcriptase according to the manufacturer's recommendations (Applied Biosystems, Foster City, Calif., USA). Quantitative real-time RT-PCR analyses of Nrf2, NQO1, HO1, and GCLM were performed by using Assay-on-Demand primers and probe sets from Applied Biosystems. Assays were performed using the ABI 7000 Taqman system (Applied Biosystems, Foster City, Calif.). β-actin was used for normalization.
# Beas-2B cells = assay: Cell viability / cytotoxicity (MTT assay) in Beas-2B cells; format: cell-based, human; conditions: 24 h, DMSO = 100
# Experimental: Concurrent with the gene expression analysis, the cytotoxicity of the chalcone derivatives was determined using the MTT assay.
# Mad. Chem. 2007, 15, 2952-2962. […] Four hours before the end of incubation, the medium was removed and 100 μL of MTT (5 mg/mL in serum free medium) was added to each well. The MTT was removed after 4 h, cells were washed with PBS, and 100 μL DMSO was added to each well to dissolve the water-insoluble MTT-formazan crystals. The absorbance was recorded at 570 nm in a plate reader (Molecular Devices, Sunnyvale, Calif.).
# [1] = BEAS-2B, DMSO = 1.0 (Table 2), read-out: Relative Fold Change GCLM
# [2] = BEAS-2B, DMSO = 1.0 (Table 2), read-out: Relative Fold Change NQO1
# [3] = DMSO = 1.0 (Table 2), read-out: Relative Fold Change GCLM
# [4] = DMSO = 1.0 (Table 2), read-out: Relative Fold Change NQO1
# [5] = BEAS-2B, DMSO = 1 (Table 3), read-out: Relative Fold Change GCLM
# [6] = BEAS-2B, DMSO = 1 (Table 3), read-out: Relative Fold Change NQO1
Compound,fold induction at 10 µM (Nrf2; [1]),fold induction at 10 µM (Nrf2; [2]),also measured
"COc1ccccc1C(=O)/C=C/c1ccccc1 [Compound 1b, (E)-1-(2-methoxyphenyl)-3-phenylprop-2-en-1-one]",3.6,3.2,
"COc1cccc(C(=O)/C=C/c2ccccc2)c1 [Compound 1c, (E)-1-(3-methoxyphenyl)-3-phenylprop-2-en-1-one]",1.5,2.4,
"COc1ccc(C(=O)/C=C/c2ccccc2)cc1 [Compound 1d, (E)-1-(4-methoxyphenyl)-3-phenylprop-2-en-1-one]",1.9,2.8,
"COc1ccc(C(=O)/C=C/c2ccccc2)c(OC)c1 [Compound 1e, (E)-3-phenyl-1-(2,4-dimethoxyphenyl)prop-2-en-1-one]",,,fold induction at 10 µM (Nrf2; [3]): 2.7; fold induction at 10 µM (Nrf2; [4]): 2.8
"COc1cccc(OC)c1C(=O)/C=C/c1ccccc1 [Compound 1f, (E)-3-phenyl-1-(2,6-dimethoxyphenyl)prop-2-en-1-one]",2.5,1.9,
"COc1ccc(OC)c(C(=O)/C=C/c2ccccc2)c1 [Compound 1g, (E)-3-phenyl-1-(2,5-dimethoxyphenyl)prop-2-en-1-one]",3,2.6,
"COc1ccc(C(=O)/C=C/c2ccccc2)cc1OC [Compound 1h, (E)-3-phenyl-1-(3,4-dimethoxyphenyl)prop-2-en-1-one]",,,fold induction at 10 µM (Nrf2; [3]): 2.3; fold induction at 10 µM (Nrf2; [4]): 2.5
"COc1cc(OC)cc(C(=O)/C=C/c2ccccc2)c1 [Compound 1i, (E)-3-phenyl-1-(3,5-dimethoxyphenyl)prop-2-en-1-one]",3,2.4,
"COc1cc(C(=O)/C=C/c2ccccc2)cc(OC)c1OC [Compound 1j, (E)-3-phenyl-1-(3,4,5-trimethoxyphenyl)prop-2-en-1-one]",0.7,0.7,
"COc1ccc(C(=O)/C=C/c2ccccc2)c(OC)c1OC [Compound 1k, (E)-3-phenyl-1-(2,3,4.trimethoxyphenyl)prop-2-en-1-one]",,,"Relative Fold Change GCLM (Nrf2; 10 μM, DMSO = 1.0 (Table 2)): 2.4; Relative Fold Change NQO1 (Nrf2; 10 μM, DMSO = 1.0 (Table 2)): 2.4"
"COc1cc(OC)c(C(=O)/C=C/c2ccccc2)c(OC)c1 [Compound 1l, (E)-3-phenyl-1-(2,4,6-trimethoxyphenyl)prop-2-en-1-one]",3.1,1.8,
"O=C(/C=C/c1ccccc1C(F)(F)F)c1ccccc1 [Compound 2a, (E)-1-phenyl-3-(2-(trifluoromethyl)phenyl)prop-2-en-1-one]",5,5.3,% Cell Viability (Beas-2B cells): 144.8%; fold induction at 10 µM (Nrf2; [5]): 5; fold induction at 10 µM (Nrf2; [6]): 5.3
"COc1cccc(C(=O)/C=C/c2ccccc2C(F)(F)F)c1 [Compound 2c, (E)-1-(3-methoxyphenyl)-3-(2-(trifluoromethyl)phenyl)prop-2-en-1-one]",5.6,4.3,% Cell Viability (Beas-2B cells): 96.6%; fold induction at 10 µM (Nrf2; [5]): 5.6; fold induction at 10 µM (Nrf2; [6]): 4.3
"COc1ccc(C(=O)/C=C/c2ccccc2C(F)(F)F)cc1 [Compound 2d, (E)-1-(4-methoxyphenyl)-3-(2-(trifluoromethyl)phenyl)prop-2-en-1-one]",5.4,4.6,% Cell Viability (Beas-2B cells): 96%; fold induction at 10 µM (Nrf2; [5]): 5.4; fold induction at 10 µM (Nrf2; [6]): 4.6
"COc1ccc(OC)c(C(=O)/C=C/c2ccccc2C(F)(F)F)c1 [Compound 2g, (E)-1-(2,5-dimethoxyphenyl)-3-(2-(trifluoromethyl)phenyl)prop-2-en-1-one]",4.4,2.7,
"COc1ccc(C(=O)/C=C/c2ccccc2C(F)(F)F)cc1OC [Compound 2h, (E)-1-(3,4-dimethoxyphenyl)-3-(2-(trifluoromethyl)phenyl)prop-2-en-1-one]",4.3,2.7,
"COc1cc(C(=O)/C=C/c2ccccc2C(F)(F)F)cc(OC)c1OC [Compound 2j, (E)-1-(3,4,5,S.trimethoxyphenyl)-3-(2-(trifluoromethyl)phenyl)prop-2-en-1-one]",3,3.1,
"O=C(/C=C/c1cccc(C(F)(F)F)c1)c1ccccc1 [Compound 3a, (E)-1-phenyl-3-(3-(trifluoromethyl)phenyl)prop-2-en-1-one]",3.1,2.8,

Compound,fold induction at 10 µM (Nrf2; [1]),fold induction at 10 µM (Nrf2; [2]),also measured
"COc1ccccc1C(=O)/C=C/c1cccc(C(F)(F)F)c1 [Compound 3b, (E)-1-(2-methoxyphenyl)-3-(3-(trifluoromethyl)phenyl)prop-2-en-1-one]",3.9,2.9,
"COc1ccc(C(=O)/C=C/c2cccc(C(F)(F)F)c2)cc1 [Compound 3d, (E)-1-(4-methoxyphenyl)-3-(3-(trifluoromethyl)phenyl)prop-2-en-1-one]",2.7,2.8,
"COc1ccc(C(=O)/C=C/c2cccc(C(F)(F)F)c2)c(OC)c1 [Compound 3e, (E)-1-(2,4-dimethoxyphenyl)-3-(3-(trifluoromethyl)phenyl)prop-2-en-1-one]",4.6,4,
"COc1cccc(OC)c1C(=O)/C=C/c1cccc(C(F)(F)F)c1 [Compound 3f, (E)-1-(2,6-dimethoxyphenyl)-3-(3-(trifluoromethyl)phenyl)prop-2-en-1-one]",1.8,0.6,
"COc1ccc(OC)c(C(=O)/C=C/c2cccc(C(F)(F)F)c2)c1 [Compound 3g, (E)-1-(2,5-dimethoxyphenyl)-3-(3-(trifluoromethyl)phenyl)prop-2-en-1-one]",1.8,0.8,
"COc1ccc(C(=O)/C=C/c2cccc(C(F)(F)F)c2)cc1OC [Compound 3h, (E)-1-(3,4-dimethoxyphenyl)-3-(3-(trifluoromethyl)phenyl)prop-2-en-1-one]",4.1,2.9,
"COc1cc(C(=O)/C=C/c2cccc(C(F)(F)F)c2)cc(OC)c1OC [Compound 3j, (E)-1-(3,4,5-trimethoxyphenyl)-3-(3-(trifluoromethyl)phenyl)prop-2-en-1-one]",1.7,0.8,
"COc1ccc(C(=O)/C=C/c2cccc(C(F)(F)F)c2)c(OC)c1OC [Compound 3k, (E)-1-(2,3,4-trimethoxyphenyl)-3-(3-(trifluoromethyl)phenyl)prop-2-en-1-one]",3.6,3.2,
"COc1cc(OC)c(C(=O)/C=C/c2cccc(C(F)(F)F)c2)c(OC)c1 [Compound 3l, (E)-1-(2,4,6-trimethoxyphenyl)-3-(3-(trifluoromethyl)phenyl)prop-2-en-1-one]",1.4,0.7,
"O=C(/C=C/c1ccc(C(F)(F)F)cc1)c1ccccc1 [Compound 4a, (E)-1-phenyl-3-(4-(trifluoromethyl)phenyl)prop-2-en-1-one]",3.31,2.9,
"COc1cccc(C(=O)/C=C/c2ccc(C(F)(F)F)cc2)c1 [Compound 4c, (E)-1-(3-methoxyphenyl)-4-(4-(trifluoromethyl)phenyl)prop-2-en-1-one]",2.9,3.1,
"COc1cccc(OC)c1C(=O)/C=C/c1ccc(C(F)(F)F)cc1 [Compound 4f, (E)-1-(2,6-dimethoxyphenyl)-3-(4-(trifluoromethyl)phenyl)prop-2-en-1-one]",1.4,0.6,
COc1ccc(C(=O)/C=C/c2ccc(C(F)(F)F)cc2)cc1OC [Compound 4h],3.5,2.7,
COc1cc(C(=O)/C=C/c2ccc(C(F)(F)F)cc2)cc(OC)c1OC [Compound 4i],4.1,3.7,
COc1cc(OC)c(C(=O)/C=C/c2ccc(C(F)(F)F)cc2)c(OC)c1 [Compound 4k],2.4,2.4,
COc1ccc(OC)c(C(=O)/C=C/c2ccccc2[N+](=O)[O-])c1 [Compound 5g],1.7,0.7,
"COc1ccc(C(=O)/C=C/c2ccccc2[N+](=O)[O-])c(OC)c1OC [Compound 5k, (E)-1-(2,3,4-trimethoxyphenyl)-3-(2-nitrophenyl)prop-2-en-1-one]",2.9,3.3,
